Results: the NIST ThermoML archive (doi:10.1016/j.tca.2006.04.016)

Test: xn = mol fraction of the nth substance listed
Details: 101 kPa, Liquid, Vibrating tube method

CN(C)CCCN [N,N-dimethyl-1,3-propanediamine] + O
mass density [kg/m3]
Details | 318.15 K | 323.15 K | 328.15 K | 333.15 K | 338.15 K | 343.15 K | 348.15 K | 353.15 K
x2 = 0 | – | 790.41 | 785.91 | 781.39 | 776.85 | 772.29 | 767.7 | 763.1
x2 = 0.0403 | – | 793.5 | 789 | 784.47 | 779.92 | 775.35 | 770.76 | 766.14
x2 = 0.0811 | – | 796.65 | 792.14 | 787.61 | 783.06 | 778.48 | 773.88 | 769.25
x2 = 0.1198 | – | 799.82 | 795.31 | 790.78 | 786.22 | 781.64 | 777.03 | 772.39
x2 = 0.16 | – | 803.3 | 798.79 | 794.25 | 789.69 | 785.1 | 780.49 | 775.84
x2 = 0.1996 | – | 806.9 | 802.39 | 797.86 | 793.3 | 788.71 | 784.09 | 779.43
x2 = 0.2498 | – | 811.82 | 807.31 | 802.78 | 798.22 | 793.62 | 788.99 | 784.32
x2 = 0.2998 | – | 817.12 | 812.62 | 808.09 | 803.53 | 798.93 | 794.3 | 789.63
x2 = 0.3499 | – | 822.81 | 818.31 | 813.78 | 809.21 | 804.61 | 799.97 | 795.29
x2 = 0.3997 | – | 829.08 | 824.59 | 820.06 | 815.49 | 810.89 | 806.24 | 801.55
x2 = 0.4501 | – | 836.03 | 831.54 | 827.01 | 822.44 | 817.83 | 813.18 | 808.48
x2 = 0.4998 | – | 843.68 | 839.19 | 834.65 | 830.08 | 825.45 | 820.79 | 816.07
x2 = 0.5501 | – | 852.33 | 847.84 | 843.3 | 838.71 | 834.08 | 829.41 | 824.69
x2 = 0.5999 | 866.35 | 861.89 | 857.39 | 852.84 | 848.24 | 843.6 | 838.92 | 834.17
x2 = 0.6498 | 877.08 | 872.61 | 868.1 | 863.55 | 858.94 | 854.29 | 849.59 | 844.83
x2 = 0.7 | 889.3 | 884.83 | 880.31 | 875.74 | 871.13 | 866.47 | 861.76 | 857
x2 = 0.7499 | 902.82 | 898.36 | 893.85 | 889.3 | 884.69 | 880.03 | 875.32 | 870.56
x2 = 0.8 | 917.71 | 913.29 | 908.82 | 904.3 | 899.72 | 895.11 | 890.44 | 885.71
x2 = 0.84 | 930.55 | 926.21 | 921.82 | 917.39 | 912.9 | 908.37 | 903.78 | 899.14
x2 = 0.8799 | 943.86 | 939.69 | 935.48 | 931.22 | 926.91 | 922.56 | 918.14 | 913.67
x2 = 0.9 | 950.58 | 946.58 | 942.52 | 938.42 | 934.27 | 930.05 | 925.79 | 921.45
x2 = 0.92 | 957.27 | 953.52 | 949.71 | 945.84 | 941.89 | 937.89 | 933.81 | 929.67
x2 = 0.94 | 963.99 | 960.6 | 957.12 | 953.56 | 949.91 | 946.17 | 942.35 | 938.45
x2 = 0.9597 | 970.89 | 967.94 | 964.87 | 961.68 | 958.38 | 954.98 | 951.46 | 947.86
x2 = 0.975 | 976.98 | 974.39 | 971.65 | 968.78 | 965.78 | 962.66 | 959.41 | 956.07
x2 = 0.99 | 984.22 | 981.91 | 979.45 | 976.83 | 974.07 | 971.18 | 968.15 | 965.01
